Assay results taken from paper PMC4897788, “Design, biological evaluation and 3D QSAR studies of novel dioxin-containing pyrazoline derivatives with thiourea skeleton as selective HER-2 inhibitors” (Scientific Reports, 2016).

How the values were obtained:
[1] = test system: MDA-MB-453 human breast cancer cell line; test: Anti-proliferation assay (MTT), MDA-MB-453; type: cell-based; conditions: 24 h
Experimental: (§1) MCF-7 human breast cancer cells was cultured in DMEM/10% fetal bovine serum, in 5% CO2 water saturated atmosphere at 37 °C. MDA-MB-453 human breast cancer cells was cultured in L-15 medium in 100% air at 37 °C. Cell suspensions (10000/mL) were prepared and 100 μL/well dispensed into 96-well plates (Costar) giving 1000 cells/well. The plates were returned to the incubator for 24 h to allow the cells to reattach. These compounds were initially prepared at 20 mM in DMSO. Aliquots (200 μL) were diluted into 20 mL culture medium giving 200 μM, and 10 serial dilutions of 3× prepared. Aliquots (100 μL) of each dilution were added to the wells, giving doses ranging from 100 μM to 0.005 μM. After a further incubated at 37 °C for 24 h in a humidified atmosphere with 5% CO2, the cell viability was assessed by the conventional 3-(4,5-dimethylthiazol-2-yl)-2,5-diphenyltetrazolium bromide (MTT) reduction assay and carried out strictly according to the manufacturer instructions (Sigma). The absorbance at 590 nm was recorded using LX300 Epson Diagnostic micro-plate reader. Then GI50 was calculated using SPSS 13.0 software.

[2] = test system: MCF-7 human breast cancer cell line; test: Anti-proliferation assay (MTT), MCF-7; type: cell-based; conditions: MCF7, 24 h
Experimental: as §1

[3] = target: EGFR (Homo sapiens, UniProt P00533); test: EGFR autophosphorylation kinase assay (DELFIA/time-resolved fluorometry)
EGFR, sequence (P00533 669-1210): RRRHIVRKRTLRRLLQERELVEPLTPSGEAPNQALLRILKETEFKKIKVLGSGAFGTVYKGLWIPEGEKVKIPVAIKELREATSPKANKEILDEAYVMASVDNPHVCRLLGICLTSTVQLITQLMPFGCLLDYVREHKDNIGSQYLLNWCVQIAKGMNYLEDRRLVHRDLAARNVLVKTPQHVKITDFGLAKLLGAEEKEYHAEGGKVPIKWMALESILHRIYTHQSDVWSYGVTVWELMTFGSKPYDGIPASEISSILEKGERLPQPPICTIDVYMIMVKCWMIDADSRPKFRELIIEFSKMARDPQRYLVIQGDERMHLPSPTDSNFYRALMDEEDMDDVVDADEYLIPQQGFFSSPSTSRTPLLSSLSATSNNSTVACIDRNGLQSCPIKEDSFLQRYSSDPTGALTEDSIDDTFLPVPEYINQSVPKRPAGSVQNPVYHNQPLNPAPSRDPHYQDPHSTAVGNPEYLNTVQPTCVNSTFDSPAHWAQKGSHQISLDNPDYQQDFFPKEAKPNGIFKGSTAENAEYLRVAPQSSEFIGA
Experimental: (§2) A sequence that encodes (His)6 was located at the 5′ upstream to the HER-2 and EGFR sequences. Sf-9 cells were infected for 3 days for protein expression. Sf-9 cell pellets were solubilized at 0 °C in a buffer at pH 7.4 containing 50 mM HEPES, 10 mM NaCl, 1% Triton, 10 μM ammonium molybdate, 100 μM sodium vanadate, 10 μg/mL aprotinin, 10 μg/mL leupeptin, 10 μg/mL pepstatin, and 16 μg/mL benzamidine, HCl for 20 min followed by 20 min centrifugation. Crude extract supernatant was passed through an equilibrated Ni–NTA superflow packed column and washed with 10 mM and then 100 mM imidazole to remove nonspecifically bound material. Histidine-tagged proteins were eluted with 250 and 500 mM imidazole and dialyzed against 50 mM NaCl, 20 mM HEPES, 10% glycerol and 1 μg/mL each of aprotinin, leupeptin, and pepstatin for 2 h. The entire purification procedure was performed at 4 °C or on ice.
(§3) Both EGFR and HER-2 kinase assays were set up to assess the level of autophosphorylation based on DELFIA/Time-Resolved Fluorometry. […] Then, 10 μL of 5× buffer (containing 20 mM HEPES, 2 mM MnCl2, 100 μM Na3VO4, and 1 mM DTT) and 20 μL of 0.1 mM ATP-50 mM MgCl2 was added for 1 h. Positive and negative controls were included in each plate by incubation of enzyme with or without ATP-MgCl2. At the end of incubation, liquid was aspirated and plates were washed three times with wash buffer. A 75 μL (400 ng) sample of europium-labeled anti-phosphotyrosine antibody was added to each well for another 1 h of incubation. […] The IC50 was obtained from curves of percentage inhibition with eight concentrations of compound. As the contaminants in the enzyme preparation are fairly low, the majority of the signal detected by the anti-phosphotyrosine antibody is from EGFR or HER-2. The experiment was performed for three independent times and in triplicate each time.

[4] = target: HER-2 (Homo sapiens, UniProt P04626); test: HER-2 autophosphorylation kinase assay (DELFIA/time-resolved fluorometry); conditions: for SI EGFR/HER-2: selectivity index, IC50 EGFR/IC50 HER-2
HER-2, sequence (P04626 676-1245): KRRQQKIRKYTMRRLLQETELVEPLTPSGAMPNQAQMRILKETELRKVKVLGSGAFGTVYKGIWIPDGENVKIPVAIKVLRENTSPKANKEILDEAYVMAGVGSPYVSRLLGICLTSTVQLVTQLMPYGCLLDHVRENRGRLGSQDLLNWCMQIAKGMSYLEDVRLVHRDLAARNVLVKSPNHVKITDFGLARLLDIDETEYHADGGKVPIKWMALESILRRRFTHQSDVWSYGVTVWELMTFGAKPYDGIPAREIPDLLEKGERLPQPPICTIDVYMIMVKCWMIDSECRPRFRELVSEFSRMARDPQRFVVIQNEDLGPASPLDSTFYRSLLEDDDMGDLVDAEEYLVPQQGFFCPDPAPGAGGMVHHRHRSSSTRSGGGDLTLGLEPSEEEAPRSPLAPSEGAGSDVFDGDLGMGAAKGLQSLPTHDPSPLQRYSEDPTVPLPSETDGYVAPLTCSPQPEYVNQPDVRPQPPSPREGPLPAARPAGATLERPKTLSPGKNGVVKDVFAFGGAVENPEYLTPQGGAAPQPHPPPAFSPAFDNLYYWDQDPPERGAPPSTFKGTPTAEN
Experimental: as §2, §3

| Compound | GI50 [1] | GI50 [2] | IC50 [3] | melting point | IC50 [4] | SI EGFR/HER-2 [4] |
| --- | --- | --- | --- | --- | --- | --- |
| NC(=S)N1N=C(c2ccc3c(c2)OCCO3)CC1c1cccc(Br)c1 (stereo not shown) [Compound C8, 5-(3-bromophenyl)-3-(2,3-dihydrobenzo[b][1,4]dioxin-6-yl)-4,5-dihydro-1H-pyrazole-1-carbothioamide] | 1.69 ± 0.15 µM | 5.64 ± 0.52 µM | 8.63 ± 0.78 µM | 247 to 249 °C | 0.45 ± 0.04 µM | 19.2 |
| NC(=S)N1N=C(c2ccc3c(c2)OCCO3)CC1c1cccc(OCc2ccccc2)c1 (stereo not shown) [Compound C6, 5-(3-(benzyloxy)phenyl)-3-(2,3-dihydrobenzo[b][1,4]dioxin-6-yl)-4,5-dihydro-1H-pyrazole-1-carbothioamide] | 0.2 ± 0.02 µM | 4.95 ± 0.43 µM | 4.49 ± 0.41 µM | 178 to 180 °C | 0.06 ± 0.004 µM | 74.8 |
| NC(=S)N1N=C(c2ccc3c(c2)OCCO3)CC1c1ccc(OCc2ccccc2)cc1 (stereo not shown) [Compound C16, 5-(4-(benzyloxy)phenyl)-3-(2,3-dihydrobenzo[b][1,4]dioxin-6-yl)-4,5-dihydro-1H-pyrazole-1-carbothioamide] | 0.36 ± 0.03 µM | 5.99 ± 0.55 µM | 10.2 ± 0.94 µM | 197 to 199 °C | 0.13 ± 0.01 µM | 78.5 |
| COc1cccc(C2CC(c3ccc4c(c3)OCCO4)=NN2C(N)=S)c1 (stereo not shown) [Compound C5, 3-(2,3-dihydrobenzo[b][1,4]dioxin-6-yl)-5-(3-methoxyphenyl)-4,5-dihydro-1H-pyrazole-1-carbothioamide] | 135 ± 11.1 µM | 57.2 ± 5.36 µM | 43.6 ± 4.1 µM | 168 to 170 °C | 86.5 ± 8.05 µM | 0.50 |
| NC(=S)N1N=C(c2ccc3c(c2)OCCO3)CC1c1cccc(Cl)c1 (stereo not shown) [Compound C7, 5-(3-chlorophenyl)-3-(2,3-dihydrobenzo[b][1,4]dioxin-6-yl)-4,5-dihydro-1H-pyrazole-1-carbothioamide] | > 300 µM | 16.8 ± 0.98 µM | 9.45 ± 0.88 µM | 246 to 248 °C | 62.8 ± 5.67 µM | 0.15 |
| NC(=S)N1N=C(c2ccc3c(c2)OCCO3)CC1c1ccccc1F (stereo not shown) [Compound C4, 3-(2,3-dihydrobenzo[b][1,4]dioxin-6-yl)-5-(2-fluorophenyl)-4,5-dihydro-1H-pyrazole-1-carbothioamide] | > 300 µM | 185 ± 17.8 µM | 59.3 ± 5.58 µM | 169 to 171 °C | 125 ± 10.2 µM | 0.47 |
| NC(=S)N1N=C(c2ccc3c(c2)OCCO3)CC1c1ccco1 (stereo not shown) [Compound C19, 3-(2,3-dihydrobenzo[b][1,4]dioxin-6-yl)-5-(furan-2-yl)-4,5-dihydro-1H-pyrazole-1-carbothioamide] | 33.4 ± 2.95 µM | > 300 µM | 197 ± 18.5 µM | 174 to 175 °C | 12 ± 1.02 µM | 16.3 |
| CS(=O)(=O)CCNCc1ccc(-c2ccc3ncnc(Nc4ccc(OCc5cccc(F)c5)c(Cl)c4)c3c2)o1 [Lapatinib, reference compound] | 0.03 ± 0.002 µM | 3.12 ± 0.24 µM |  |  |  |  |
| NC(=S)N1N=C(c2ccc3c(c2)OCCO3)CC1c1c(F)cccc1F (stereo not shown) [Compound C18, 5-(2,6-difluorophenyl)-3-(2,3-dihydrobenzo[b][1,4]dioxin-6-yl)-4,5-dihydro-1H-pyrazole-1-carbothioamide] | 8.68 ± 0.84 µM | 15.2 ± 1.4 µM | 34 ± 3.08 µM | 208 to 209 °C | 0.96 ± 0.08 µM | 35.4 |
| NC(=S)N1N=C(c2ccc3c(c2)OCCO3)CC1c1ccccc1 (stereo not shown) [Compound C1, 3-(2,3-dihydrobenzo[b][1,4]dioxin-6-yl)-5-phenyl-4,5-dihydro-1H-pyrazole-1-carbothioamide] | 63.4 ± 6.12 µM | 10 ± 0.91 µM | 21.9 ± 2.03 µM | 166 to 168 °C | 16 ± 1.45 µM | 1.36 |
| NC(=S)N1N=C(c2ccc3c(c2)OCCO3)CC1c1ccc(Cl)cc1 (stereo not shown) [Compound C12, 5-(4-chlorophenyl)-3-(2,3-dihydrobenzo[b][1,4]dioxin-6-yl)-4,5-dihydro-1H-pyrazole-1-carbothioamide] | 5.31 ± 0.48 µM | 33.9 ± 3.21 µM | 53.8 ± 5.12 µM | 231 to 233 °C | 0.84 ± 0.07 µM | 64.1 |
| C#Cc1cccc(Nc2ncnc3cc(OCCOC)c(OCCOC)cc23)c1 [Erlotinib, reference compound] | 1.56 ± 0.14 µM | 0.08 ± 0.006 µM |  |  |  |  |
| NC(=S)N1N=C(c2ccc3c(c2)OCCO3)CC1c1ccc(F)cc1 (stereo not shown) [Compound C11, 3-(2,3-dihydrobenzo[b][1,4]dioxin-6-yl)-5-(4-fluorophenyl)-4,5-dihydro-1H-pyrazole-1-carbothioamide] | 11.9 ± 1.05 µM | 28.5 ± 2.8 µM | 47.8 ± 4.54 µM | 235 to 237 °C | 1.9 ± 0.15 µM | 25.2 |
| NC(=S)N1N=C(c2ccc3c(c2)OCCO3)CC1c1cccc2ccccc12 (stereo not shown) [Compound C2, 3-(2,3-dihydrobenzo[b][1,4]dioxin-6-yl)-5-(naphthalen-1-yl)-4,5-dihydro-1H-pyrazole-1-carbothioamide] | 2.2 ± 0.18 µM | 4.68 ± 0.42 µM | 2.94 ± 0.26 µM | 214 to 216 °C | 0.56 ± 0.05 µM | 5.25 |
| NC(=S)N1N=C(c2ccc3c(c2)OCCO3)CC1c1ccc2ccccc2c1 (stereo not shown) [Compound C3, 3-(2,3-dihydrobenzo[b][1,4]dioxin-6-yl)-5-(naphthalen-2-yl)-4,5-dihydro-1H-pyrazole-1-carbothioamide] | 19.9 ± 1.84 µM | 5.3 ± 0.49 µM | 4.42 ± 0.35 µM | 204 to 206 °C | 7.18 ± 0.65 µM | 0.62 |
| NC(=S)N1N=C(c2ccc3c(c2)OCCO3)CC1c1ccc(I)cc1 (stereo not shown) [Compound C14, 3-(2,3-dihydrobenzo[b][1,4]dioxin-6-yl)-5-(4-iodophenyl)-4,5-dihydro-1H-pyrazole-1-carbothioamide] | 9.12 ± 0.89 µM | 135 ± 11.6 µM | 84.3 ± 7.81 µM | 259 to 261 °C | 1.23 ± 0.1 µM | 68.5 |
